Tests used:
Experiment in all cases: relative viability (nuclei count vs DMSO), 5 days (fraction); higher = more cells survive
Selumetinib + Navitoclax = compound: Cn1cnc2c(F)c(Nc3ccc(Br)cc3Cl)c(C(=O)NOCCO)cc21 [Selumetinib] + CC1(C)CCC(c2ccc(Cl)cc2)=C(CN2CCN(c3ccc(C(=O)NS(=O)(=O)c4ccc(N[C@H](CCN5CCOCC5)CSc5ccccc5)c(S(=O)(=O)C(F)(F)F)c4)cc3)CC2)C1 [Navitoclax] (partner 0.5 µM)
Method in brief: (§1)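 Relative viability equals treated-well nuclei counts divided by vehicle-well nuclei counts. Counts came from 4× images of lung cancer cell lines grown in 1536-well plates for 5 days after pin-tool dosing on the day after seeding. Dosing used one drug alone or a fixed anchor-drug dose plus five library-drug doses (not always all listed) in √10 steps, and values are medians of duplicate plates.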

Venetoclax + Decitabine = compound: CC1(C)CCC(CN2CCN(c3ccc(C(=O)NS(=O)(=O)c4ccc(NCC5CCOCC5)c([N+](=O)[O-])c4)c(Oc4cnc5[nH]ccc5c4)c3)CC2)=C(c2ccc(Cl)cc2)C1 [Venetoclax] + Nc1ncn([C@H]2C[C@H](O)[C@@H](CO)O2)c(=O)n1 [Decitabine] (partner 2 µM)
Method in brief: as §1

Venetoclax + Trametinib = compound: CC1(C)CCC(CN2CCN(c3ccc(C(=O)NS(=O)(=O)c4ccc(NCC5CCOCC5)c([N+](=O)[O-])c4)c(Oc4cnc5[nH]ccc5c4)c3)CC2)=C(c2ccc(Cl)cc2)C1 [Venetoclax] + CC(=O)Nc1cccc(-n2c(=O)n(C3CC3)c(=O)c3c(Nc4ccc(I)cc4F)n(C)c(=O)c(C)c32)c1 [Trametinib] (partner 0.02 µM)
Method in brief: as §1

Venetoclax + Phenformin = compound: CC1(C)CCC(CN2CCN(c3ccc(C(=O)NS(=O)(=O)c4ccc(NCC5CCOCC5)c([N+](=O)[O-])c4)c(Oc4cnc5[nH]ccc5c4)c3)CC2)=C(c2ccc(Cl)cc2)C1 [Venetoclax] + N=C(N)NC(=N)NCCc1ccccc1 [Phenformin] (partner 250 µM)
Method in brief: as §1

| Cell Line | relative viability (Selumetinib + Navitoclax; first compound 0.02 µM) | relative viability (Selumetinib + Navitoclax; first compound 0.06325 µM) | relative viability (Selumetinib + Navitoclax; first compound 0.2 µM) | relative viability (Selumetinib + Navitoclax; first compound 0.6325 µM) | relative viability (Venetoclax + Decitabine; first compound 0.01 µM) | relative viability (Venetoclax + Decitabine; first compound 0.03162 µM) | relative viability (Venetoclax + Decitabine; first compound 0.1 µM) | relative viability (Venetoclax + Decitabine; first compound 0.3162 µM) | relative viability (Venetoclax + Decitabine; first compound 1 µM) | relative viability (Venetoclax + Trametinib; first compound 0.01 µM) | relative viability (Venetoclax + Trametinib; first compound 0.03162 µM) | relative viability (Venetoclax + Trametinib; first compound 0.1 µM) | relative viability (Venetoclax + Trametinib; first compound 0.3162 µM) | relative viability (Venetoclax + Trametinib; first compound 1 µM) | relative viability (Venetoclax + Phenformin; first compound 0.01 µM) | relative viability (Venetoclax + Phenformin; first compound 0.03162 µM) | relative viability (Venetoclax + Phenformin; first compound 0.1 µM) | relative viability (Venetoclax + Phenformin; first compound 0.3162 µM) | relative viability (Venetoclax + Phenformin; first compound 1 µM) |
| --- | --- | --- | --- | --- | --- | --- | --- | --- | --- | --- | --- | --- | --- | --- | --- | --- | --- | --- | --- |
| HCC-827 | 0.978 | 1.04 | 1.03 | 1.04 | 0.303 | 0.418 | 0.34 | 0.249 | 0.346 | 0.522 | 0.593 | 0.538 | 0.521 | 0.535 | 0.473 | 0.497 | 0.344 | 0.406 | 0.394 |
| LXF-289 | 0.913 | 0.894 | 0.754 | 0.754 | 0.35 | 0.37 | 0.385 | 0.387 | 0.4 | 0.716 | 0.692 | 0.629 | 0.625 | 0.575 | 0.482 | 0.538 | 0.509 | 0.503 | 0.505 |
| LC-2-ad | 0.4 | 0.359 | 0.442 | 0.46 | 0.858 | 0.778 | 0.785 | 0.78 | 0.765 | 0.927 | 0.84 | 0.898 | 0.874 | 0.845 | 0.595 | 0.606 | 0.551 | 0.616 | 0.565 |
| NCI-H441 | 0.959 | 0.574 | 0.839 | 0.546 | 0.235 | 0.219 | 0.208 | 0.23 | 0.24 | 0.49 | 0.494 | 0.506 | 0.439 | 0.5 | 0.83 | 0.706 | 0.787 | 0.805 | 0.868 |
| HOP-62 | 1.01 | 0.997 | 0.929 | 0.517 | 0.182 | 0.203 | 0.199 | 0.216 | 0.218 | 0.44 | 0.341 | 0.366 | 0.442 | 0.39 | 0.622 | 0.655 | 0.67 | 0.649 | 0.64 |
| NCI-H2009 | 1.07 | 0.935 | 0.673 | 0.554 | 0.441 | 0.41 | 0.345 | 0.352 | 0.358 | 0.346 | 0.351 | 0.292 | 0.266 | 0.264 | 0.48 | 0.459 | 0.439 | 0.446 | 0.337 |
| NCI-H1755 | 1.03 | 0.986 | 0.961 | 0.948 | 0.737 | 0.754 | 0.714 | 0.739 | 0.713 | 0.713 | 0.765 | 0.768 | 0.715 | 0.736 | 0.645 | 0.616 | 0.573 | 0.629 | 0.555 |
| NCI-H520 | 1.08 | 1.1 | 1.12 | 1.07 | 0.526 | 0.506 | – | 0.557 | 0.458 | 0.58 | 0.823 | – | 0.613 | 0.594 | 0.477 | 0.507 | 0.554 | 0.566 | 0.519 |
| LOU-NH91 | 0.631 | 0.607 | 0.514 | 0.556 | 0.76 | 0.808 | 0.816 | 0.821 | 0.778 | 0.784 | 0.81 | 0.768 | 0.807 | 0.707 | 0.641 | 0.784 | 0.615 | 0.742 | 0.698 |
| LU99A | 0.856 | 0.816 | 0.928 | 0.563 | 0.758 | 0.957 | 0.831 | 0.803 | 0.858 | 0.485 | 0.611 | 0.482 | 0.566 | 0.596 | 0.852 | 0.92 | 0.799 | 0.878 | 0.822 |
| PC-14 | 1.02 | 1.03 | 0.957 | 0.949 | 0.298 | 0.164 | 0.224 | 0.207 | 0.213 | 0.679 | 0.726 | 0.726 | 0.642 | 0.645 | 0.562 | 0.747 | 0.717 | 0.709 | 0.499 |
| NCI-H2126 | 0.789 | 0.764 | 0.75 | 0.59 | 0.579 | 0.616 | 0.601 | 0.56 | 0.548 | 0.544 | 0.618 | 0.538 | 0.566 | 0.521 | 0.528 | 0.56 | 0.513 | 0.582 | 0.51 |
